# Experimental data as given in patent US20020148006A1, “Transgenic plants with modified sterol compositions” (Asgrow Seed Company, L.L.C., priority 1996, published 2002).
# Entries after “also recorded” stand apart in the source; their conditions may differ.
# How the values were obtained:
# [1] = system: Heliothis zea; test: Sterol utilization and metabolism by Heliothis zea reared on artificial diet with sterol supplement; conditions: for Instar reached by day 20 / Growth response: sterol 200 ppm in diet; for Growth response: 20-day larvae, relative to growth on cholesterol normalized to 100%; for Utilization by H. zea / support of larval growth and development (words): test sterol as sole added dietary sterol
# Experimental: Heliothis zea (corn earworm) was reared on an artificial diet treated with different sterol supplements to study the relation between sterol structure and utilization in insects. H. zea eggs were used to establish a disease-free stock colony.
# The stock insects were reared using sterile procedures on a pinto bean-based diet. Moths were fed 10% sucrose. Cultures were maintained at 27±1° C., at 40±10% relative humidity on a 14:10 light-dark photoperiod and an artificial diet was used to rear the insects on different sterol supplements. The experimental diet contained agar, which is known to contain trace contamination of cholesterol, otherwise the experimental diet was sterol-free.
# Sterols were solubilized in acetone. Aliquots of the solutions were added to the sterol-free diet in a mortar, the material mixed thoroughly with the diet, and the organic solvent allowed to evaporate. Sterols were supplied to the medium at 200 ppm (equivalent to 1 mg of sterol per experimental vessel containing one insect).
# By day 20, H. zea larva are in the final stage of larval development (sixth instar), after which the insects may pupate. A single neonate larva was placed in an experimental culture vial and allowed to grow for 20 days. The fresh weight, length and instar stage of 20-day larva were recorded.
# In some treatments, the larvae were allowed to grow for another 4 days to determine whether they could pupate properly and develop into moth forms.
# These fatty alcohols may comigrate with sterols during some forms of chromatography and interfere with sterol quantitation, particularly of cholesterol. Therefore, in order to confirm the identity and amount of cholesterol in the insect an aliquot of the NSF was injected into a HPLC column and the fraction corresponding to cholesterol was examined by GC-MS.
# [2] = system: (S)-adenosyl-L-methionine: Δ^24-sterol methyl transferase (SMT); test: Sterol specificity (substrate methylation) of SMT enzyme from 4-day corn seedlings; type: biochemical, Zea mays (corn); conditions: for Enzyme Activity: soluble SMT from corn seedlings, BG = background; for % Activity, relative to cycloartenol methylation: soluble SMT
# Experimental: The sterol specificity of the microsome-bound and soluble SMT enzyme from 4-day corn seedlings was determined in order to elucidate the enzymatic basis for the plant sterols identified in Example 1.
# [3] = Table 11, insect tissues, RP-HPLC and GC-MS
# [4] = substrates marked (C1), first methyl transfer
compound,measurement,setting,value
"24-Ethyl cholesta-5,24-dienol",Instar reached by day 20,[1]; Table 11,3
same,Growth response,[1]; Table 11,10%
"24-methyl cholesta-5,23-dienol [24-Methylcholesta-5,23-dienol]",Sterol composition (as % total sterol): cholesterol,[1]; [3],20%
same,Sterol composition (as % total sterol): ts,[1]; [3],80%
same,Instar reached by day 20,[1]; Table 11,5
same,Growth response,[1]; Table 11,50%
same,Utilization by H. zea / support of larval growth and development (words),[1],"non-utilizable; also recorded: #deformities. Insects in the nonutilizable category generally weighed less than 100 mg per insect and their length ranged from 2 to 15 mm, with 6 to 12 insects alive at day 20"
CC(C)=CCC[C@@H](C)[C@H]1CC[C@@]2(C)[C@@H]3CC[C@H]4[C@H](C)[C@@H](O)CC[C@@]45C[C@@]35CC[C@]12C [31-Norcycloartenol],Enzyme Activity,[2]; [4],"18,757 dpm/min"
same,"% Activity, relative to cycloartenol methylation","[2]; (C1), first methyl transfer",50 (C1) %
"C=C(CC[C@@H](C)[C@H]1CC[C@H]2[C@@H]3CC=C4CC(O)CC[C@]4(C)[C@H]3CC[C@]12C)C(C)C (some centres unmarked) [24(28)-Methylenecholesterol, 24(28)-methylenecholesterol]",Instar reached by day 20,[1]; Table 11,6
same,Growth response,[1]; Table 11,100%
same,Sterol composition (as % total sterol): cholesterol,[1]; in vivo,84%
same,Sterol composition (as % total sterol): ts,[1]; in vivo,16%
same,Total sterol µg/insect,[1]; in vivo,59 µg/insect
same,Utilization by H. zea / support of larval growth and development (words),[1],supported larval growth to late-sixth instar
CC(C)=CCC[C@@H](C)[C@H]1CC[C@H]2C3=C(CC[C@]12C)[C@@]1(C)CCCCC1CC3 (some centres unmarked) [3-Desoxyzymosterol],"% Activity, relative to cycloartenol methylation","[2]; (C1), first methyl transfer",0 (C1) %
CC(C)=CCC[C@@H](C)[C@H]1CC[C@@]2(C)C3=C(CC[C@]12C)[C@@]1(C)CC[C@H](O)C(C)(C)[C@@H]1CC3 [Lanosterol],Instar reached by day 20,[1]; Table 11,3
same,Growth response,[1]; Table 11,5%
same,Utilization by H. zea / support of larval growth and development (words),[1],could not be met satisfactorily
same,Enzyme Activity,[2]; [4],"24,384 dpm/min"
same,"% Activity, relative to cycloartenol methylation","[2]; (C1), first methyl transfer",65 (C1) %
CC[C@@H](CC[C@@H](C)[C@H]1CC[C@H]2[C@@H]3CC=C4C[C@@H](O)CC[C@]4(C)[C@H]3CC[C@]12C)C(C)C [Clionasterol],Instar reached by day 20,[1]; Table 11,6
same,Growth response,[1]; Table 11,100%
same,Utilization by H. zea / support of larval growth and development (words),[1],supported larval growth to late-sixth instar
"CCC(=CC[C@@H](C)[C@H]1CC[C@H]2[C@@H]3CC=C4CC(O)CC[C@]4(C)[C@H]3CC[C@]12C)C(C)C (some centres unmarked) [24-Ethyl cholesta-5,23-dienol]",Sterol composition (as % total sterol): cholesterol,[1]; [3],14%
same,Sterol composition (as % total sterol): ts,[1]; [3],86%
same,Instar reached by day 20,[1]; Table 11,3
same,Growth response,[1]; Table 11,20%
"C=C(CC[C@@H](C)[C@H]1CC[C@H]2C3=C(CC[C@]12C)[C@@]1(C)CC[C@H](O)[C@@H](C)C1CC3)C(C)C (stereo partly drawn) [4α-Methylergosta-8,24(28)-dienol]",Enzyme Activity,"[2]; substrates marked (C2), second methyl transfer","1,500 dpm/min"
same,"% Activity, relative to cycloartenol methylation","[2]; (C2), second methyl transfer",4 (C2) %
(S)-adenosyl-L-methionine [coenzyme],Km,"[2]; same for the first and second methylation reactions, read-out: Km for the coenzyme",5 µM
CC(C)=CCC[C@@H](C)[C@H]1CC[C@H]2C3=C(CC[C@]12C)[C@@]1(C)CC[C@H](O)[C@@H](C)[C@@H]1CC3 [4α-Methylzymosterol],Enzyme Activity,[2]; [4],"10,504 dpm/min"
same,"% Activity, relative to cycloartenol methylation","[2]; (C1), first methyl transfer",28 (C1) %
CC(C)=CCCC(C)C1CC[C@@]2(C)C3=C(CCC12C)C1(C)CCC(O)CC1CC3 (stereo partly drawn) [14α-Methylzymosterol],Enzyme Activity,[2]; [4],"3,376 dpm/min"
same,"% Activity, relative to cycloartenol methylation","[2]; (C1), first methyl transfer",9 (C1) %
"24-Methyl cholesta-5,24-dienol",Sterol composition (as % total sterol): cholesterol,[1]; [3],35%
same,Sterol composition (as % total sterol): ts,[1]; [3],65%
same,Instar reached by day 20,[1]; Table 11,3
same,Growth response,[1]; Table 11,5%
CC(C)CCC[C@@H](C)[C@H]1CC[C@H]2C3=C(CC[C@]12C)[C@@]1(C)CCC(O)CC1CC3 (some centres unmarked) [Cholest-8-enol],Instar reached by day 20,[1]; Table 11,3
same,Growth response,[1]; Table 11,5%
same,Utilization by H. zea / support of larval growth and development (words),[1],inability of cholest-8-enol to support growth
same,"% Activity, relative to cycloartenol methylation","[2]; (C1), first methyl transfer",0 (C1) %
C/C=C(/CCC(C)C1CCC2C3CC=C4CC(O)CCC4(C)C3CCC12C)C(C)C (centres unmarked) [Isofucosterol],Sterol composition (as % total sterol): ts,[1]; [3],8%
same,Instar reached by day 20,[1]; Table 11,6
same,Growth response,[1]; Table 11,100%
same,Utilization by H. zea / support of larval growth and development (words),[1],supported larval growth to late-sixth instar
C=C(CC[C@@H](C)[C@H]1CC[C@@]2(C)[C@@H]3CC[C@H]4[C@H](C)[C@@H](O)CC[C@@]45C[C@@]35CC[C@]12C)C(C)C [Cycloeucalenol],"% Activity, relative to cycloartenol methylation","[2]; (C2), second methyl transfer",0 (C2) %
"C=C(CC[C@@H](C)[C@H]1CC[C@H]2C3=CCC4CC(O)CC[C@]4(C)[C@H]3CC[C@]12C)C(C)C (some centres unmarked) [Ergosta-7,24(28)-dienol]","% Activity, relative to cycloartenol methylation","[2]; (C2), second methyl transfer",0 (C2) %
"C=C(CC[C@@H](C)[C@H]1CC[C@H]2[C@@H]3CC=C4C[C@@H](O)CC[C@]4(C)[C@H]3CC[C@]12C)C(C)C [Ergosta-5,24(28)-dienol]","% Activity, relative to cycloartenol methylation","[2]; (C2), second methyl transfer",0 (C2) %
"24-methyl cholesta-5,25(27)-dienol",Utilization by H. zea / support of larval growth and development (words),[1],non-utilizable
C/C=C(\CC[C@@H](C)[C@H]1CC[C@H]2[C@@H]3CC=C4C[C@@H](O)CC[C@]4(C)[C@H]3CC[C@]12C)C(C)C [Fucosterol],Sterol composition (as % total sterol): ts,[1]; [3],10%
same,Instar reached by day 20,[1]; Table 11,6
same,Growth response,[1]; Table 11,100%
same,Utilization by H. zea / support of larval growth and development (words),[1],supported larval growth to late-sixth instar
"CCC(/C=C/C(C)C1CCC2C3CC=C4CC(O)CCC4(C)C3CCC12C)C(C)C (centres unmarked) [Stigmasterol, stigmasterol]",Sterol composition (as % total sterol): ts,[1]; [3],15%
same,Instar reached by day 20,[1]; Table 11,6
same,Growth response,[1]; Table 11,100%
same,Utilization by H. zea / support of larval growth and development (words),[1],supported larval growth to late-sixth instar
CC(C)=CCC[C@@H](C)[C@H]1CC[C@@]2(C)[C@@H]3CC[C@H]4C[C@@H](O)CC[C@@]45C[C@@]35CC[C@]12C [24-Dehydropollinstanol],Instar reached by day 20,[1]; Table 11,3
same,Growth response,[1]; Table 11,5%
same,Sterol composition (as % total sterol): cholesterol,[1]; in vivo,14%
same,Sterol composition (as % total sterol): ts,[1]; in vivo,86%
same,Total sterol µg/insect,[1]; in vivo,0.6 µg/insect
same,Enzyme Activity,[2]; [4],"8,253 dpm/min"
same,"% Activity, relative to cycloartenol methylation","[2]; (C1), first methyl transfer",22 (C1) %
CC(C)CCC[C@@H](C)[C@H]1CC[C@@]2(C)C3=C(CC[C@]12C)[C@@]1(C)CC[C@H](O)C(C)(C)[C@@H]1CC3 [24-Dihydrolanosterol],Instar reached by day 20,[1]; Table 11,3
same,Growth response,[1]; Table 11,5%
C=C(C)C(CC)CCC(C)C1CCC2C3CC=C4CC(O)CCC4(C)C3CCC12C (centres unmarked) [Clereosterol],Instar reached by day 20,[1]; Table 11,3
same,Growth response,[1]; Table 11,20%
same,Sterol composition (as % total sterol): cholesterol,[1]; in vivo,20%
same,Sterol composition (as % total sterol): ts,[1]; in vivo,80%
same,Total sterol µg/insect,[1]; in vivo,3 µg/insect
"C=C(CC[C@@H](C)[C@H]1CC[C@H]2C3=C(CC[C@]12C)[C@@]1(C)CC[C@H](O)CC1CC3)C(C)C (some centres unmarked) [Ergosta-8,24(28)-dienol]","% Activity, relative to cycloartenol methylation","[2]; (C2), second methyl transfer",0 (C2) %
C=C(CC[C@@H](C)[C@H]1CC[C@@]2(C)C3=C(CC[C@]12C)[C@@]1(C)CC[C@H](O)[C@@H](C)[C@@H]1CC3)C(C)C [Obtusifoliol],"% Activity, relative to cycloartenol methylation","[2]; (C2), second methyl transfer",0 (C2) %
CC(C)=CCC[C@@H](C)[C@H]1CC[C@@]2(C)[C@@H]3CC[C@H]4C(C)(C)[C@@H](O)CC[C@]4(C)C3=CC[C@]12C [Parkeol],Enzyme Activity,[2]; [4],"6,002 dpm/min"
same,"% Activity, relative to cycloartenol methylation","[2]; (C1), first methyl transfer",16 (C1) %
